Data taken from patent US12616676B2, “Preparation method and use of modified hydrophobic excipient” (ZHEJIANG ZHIDA PHARMACEUTICAL CO., LTD., priority 2019, dated 2026).
Where two headings read alike, the source gives them in different places.

Assay: solubility of paclitaxel in olive oil, castor oil and hydrophobic excipients (crystal formation after drying)
Format: physicochemical
Procedure: The specific experimental method was as follows. […] The chloroform solution was mixed with 0.5 ml of chloroform, from which 0.5 ml of diluent was taken and two-fold serial dilution was performed by using chloroform. Then 0.5 ml of a chloroform solution of paclitaxel (10 mg/ml) was added to the above-mentioned sample after the two-fold serial dilution, and then left in a hood to be naturally volatilized overnight. Crystal formation in the dried sample was observed and recorded.

Molecule	solubility of paclitaxel compared with olive oil and castor oil (data comparison in table 1)	solubility of paclitaxel (crystal formation in the dried sample) (hydrophobic excipient 0.98 mg, 0.5 ml chloroform solution of paclitaxel (10 mg/ml), volatilized overnight)	solubility of paclitaxel (crystal formation in the dried sample) (hydrophobic excipient 1.95 mg, 0.5 ml chloroform solution of paclitaxel (10 mg/ml), volatilized overnight)	solubility of paclitaxel (crystal formation in the dried sample) (hydrophobic excipient 3.90 mg, 0.5 ml chloroform solution of paclitaxel (10 mg/ml), volatilized overnight)	solubility of paclitaxel (crystal formation in the dried sample) (hydrophobic excipient 7.81 mg, 0.5 ml chloroform solution of paclitaxel (10 mg/ml), volatilized overnight)	solubility of paclitaxel (crystal formation in the dried sample) (hydrophobic excipient 15.65 mg, 0.5 ml chloroform solution of paclitaxel (10 mg/ml), volatilized overnight)	solubility of paclitaxel (crystal formation in the dried sample) (hydrophobic excipient 31.30 mg, 0.5 ml chloroform solution of paclitaxel (10 mg/ml), volatilized overnight)	solubility of paclitaxel (crystal formation in the dried sample) (hydrophobic excipient 62.50 mg, 0.5 ml chloroform solution of paclitaxel (10 mg/ml), volatilized overnight)	solubility of paclitaxel (crystal formation in the dried sample) (hydrophobic excipient 125.00 mg, 0.5 ml chloroform solution of paclitaxel (10 mg/ml), volatilized overnight)	solubility of paclitaxel (crystal formation in the dried sample) (hydrophobic excipient 250.00 mg, 0.5 ml chloroform solution of paclitaxel (10 mg/ml), volatilized overnight)	solubility of paclitaxel (crystal formation in the dried sample)
CCCCCCCC/C=C\CCCCCCCCNC(=O)CC[C@@H](C)[C@H]1CC[C@H]2[C@@H]3[C@H](OC(=O)CNC(=O)[C@H](CCCCNC(=O)OC(C)(C)C)NC(=O)OCC4c5ccccc5-c5ccccc54)C[C@@H]4C[C@H](OC(=O)CNC(=O)[C@H](CCCCNC(=O)OC(C)(C)C)NC(=O)OCC5c6ccccc6-c6ccccc65)CC[C@]4(C)[C@H]3C[C@H](OC(=O)CNC(=O)[C@H](CCCCNC(=O)OC(C)(C)C)NC(=O)OCC3c4ccccc4-c4ccccc43)[C@]12C [Example 4]	greater than that in olive oil and castor oil	+	+	+	+/−	−	−	−	−	−	
castor oil											+
